Marks after values point to notes of the source that are not given here.
Legend:
[1] = system: permanent 2-VO rats (chronic cerebral hypoperfusion); experiment: Morris water maze in permanent 2-VO (BCCAO) rats; format: in vivo, rat; conditions: for probe trial: time in the platform quadrant and time to cross the platform location / escape latency in the water maze task: 2-VO rats; for probe trial: time in the platform quadrant and time to cross the platform location: compared to 2-VO animals; for escape latency in the water maze task: vs vehicle
Source text: Chronic cerebral hypoperfusion was proceeded by a permanent, bilateral occlusion of the common carotid arteries (2-VO) of adult rats. The rats were anesthetized with 10% trichloro-acetaldehyde, and temperature probe was inserted into the rectum, and a separate heating lamp was used to maintain rectal temperature at normothermic level. After a midline neck skin incision, the common carotid artery were exposed and ligated by a 5-0 nylon suture.
Rats were randomly divided into six experimental groups (20 rats/each group): one sham-operated group, one vehicle control group, one piracetam-treated group (600 mg/kg), and three dl-PHPB-treated groups (13, 39, and 129 mg/kg). In 10 days after onset of 2-VO, drugs and vehicle were administered orally to rats for 21 days (one time/each day). The spatial learning and memory capability of rats were detected by Morris water maze in the 25-30 days after operation. The Morris water test was commenced at 40 min after drugs treated. The biochemical and pathology assays were conducted later (in 24 h) after behavioral tests.
Subjects were tested in a Morris water maze. This test is based on a standardized assessment of spatial learning ability. The water maze apparatus consisted of a circular, stainless pool (120 cm in diameter, 60 cm in height). It was placed in a dimly lit, sound-proof test room. Multiple distant cues around the room (window, cabinets, furniture) were kept in the same location throughout the experiments. The water was filled to a depth of 40 cm at 25±1° C. and was made opaque by adding milk powder to prevent visualization of the platform. A transparent platform (10 cm diameter) was put 1.5 cm below the surface of the water. The tank was divided into four quadrants with the platform in a fixed position in one quadrant. The subjects were placed into the maze facing the pool wall and were allowed two trials per day, 60 s per trial, to find the hidden platform. If the subject found the platform within the 60 s, it was given a 10-s rest period on the platform between trials. If the pedestal was not located within the time allotted, the subject was placed on to the platform and allowed 10 s until the next trial. The escape latency (time to reach the platform) was used to assess acquisition of the water maze task. Sessions were repeated for five consecutive days. On the sixth day, the platform was removed and the rat was allowed to search for the platform for 60 s (probe test). The time in the platform quadrant and latency time to cross platform location were recorded to measure the spatial learning ability without the influence of chance encounters with the platform. The Morris water maze sessions were recorded with a video camera for offline analysis.

ChAT = ChAT activity of brain tissues from permanent 2-VO rats; format: in vivo, rat; conditions: for activity of ChAT in hippocampus: 21 days
Procedure: In 10 days after onset of 2-VO, drugs and vehicle were administered orally to rats for 21 days (one time/each day). The spatial learning and memory capability of rats were detected by Morris water maze in the 25-30 days after operation. The Morris water test was commenced at 40 min after drugs treated. The biochemical and pathology assays were conducted later (in 24 h) after behavioral tests.
The biochemical assays were conducted later (in 24 h) after behavioral testing. Eight rats in each group were anesthetized with ether and sacrificed. The brains were quickly removed and cleaned with ice-cold saline. Then the parietal cortex and hippocampus were isolated. For biochemical analysis, the tissues were weighed and homogenized in ice-cold saline with the proportion of 1:9 (w/v). Homogenization (IKA, Germany) was carried out for 2 min in an ice bath. After the homogenates were centrifuged at 2,000×g for 10 min at 4° C. (Sigma, Germany), the supernatant was used for analytical procedures. The levels of choline acetyltransferase (ChAT) SOD, and MDA activities were determined with commercial colorimetric assay kits (Nanjing Jiancheng Bioengineering Institute, China). The content of protein in the supernatant was determined by Bradford method using BSA as standard.

[2] = dl-PHPB 13 mg/kg, 1st of 5 M/R/T/L column groups (day not printed)
[3] = dl-PHPB 13 mg/kg, 2nd of 5 M/R/T/L column groups (day not printed)
[4] = dl-PHPB 13 mg/kg, 3rd of 5 M/R/T/L column groups (day not printed)
[5] = dl-PHPB 13 mg/kg, 4th of 5 M/R/T/L column groups (day not printed)
[6] = dl-PHPB 13 mg/kg, 5th of 5 M/R/T/L column groups (day not printed)
[7] = dl-PHPB 39 mg/kg, 1st of 5 M/R/T/L column groups (day not printed)
[8] = dl-PHPB 39 mg/kg, 2nd of 5 M/R/T/L column groups (day not printed)
[9] = dl-PHPB 39 mg/kg, 3rd of 5 M/R/T/L column groups (day not printed)
[10] = dl-PHPB 39 mg/kg, 4th of 5 M/R/T/L column groups (day not printed)
[11] = dl-PHPB 39 mg/kg, 5th of 5 M/R/T/L column groups (day not printed)
[12] = dl-PHPB 129 mg/kg, 1st of 5 M/R/T/L column groups (day not printed)
[13] = dl-PHPB 129 mg/kg, 2nd of 5 M/R/T/L column groups (day not printed)
[14] = dl-PHPB 129 mg/kg, 3rd of 5 M/R/T/L column groups (day not printed)
[15] = dl-PHPB 129 mg/kg, 4th of 5 M/R/T/L column groups (day not printed)
[16] = dl-PHPB 129 mg/kg, 5th of 5 M/R/T/L column groups (day not printed)

CCCCC(O)c1ccccc1C(=O)[O-].[K+] (racemic) [dl-PHPB, Potassium 2-(1-Hydroxypentyl)-benzoate]
probe trial: time in the platform quadrant and time to cross the platform location ([1]; 13 mg/kg orally 21 days): markedly showed ameliorative effect | escape latency in the water maze task ([1]; 13 mg/kg orally daily for 21 days): did not differ from the vehicle control animals | probe trial: time in the platform quadrant and time to cross the platform location ([1]; 39 mg/kg orally 21 days): markedly showed ameliorative effect | escape latency in the water maze task ([1]; 39 mg/kg orally daily for 21 days): significantly rescued learning impairment | escape latency in the water maze task ([1]; 129 mg/kg orally daily for 21 days): significantly rescued learning impairment | search strategy times, linear mode (L) [1, 2]: 1 | search strategy times, marginal mode (M) [1, 2]: 11 | search strategy times, random mode (R) [1, 2]: 13 | search strategy times, tendency mode (T) [1, 2]: 11 | search strategy times, linear mode (L) [1, 3]: 6 | search strategy times, marginal mode (M) [1, 3]: 3 | search strategy times, random mode (R) [1, 3]: 11 | search strategy times, tendency mode (T) [1, 3]: 16 | search strategy times, linear mode (L) [1, 4]: 5 | search strategy times, marginal mode (M) [1, 4]: 0 | search strategy times, random mode (R) [1, 4]: 10 | search strategy times, tendency mode (T) [1, 4]: 21 | search strategy times, linear mode (L) [1, 5]: 7 | search strategy times, marginal mode (M) [1, 5]: 0 | search strategy times, random mode (R) [1, 5]: 9 | search strategy times, tendency mode (T) [1, 5]: 20 | search strategy times, linear mode (L) [1, 6]: 4 | search strategy times, marginal mode (M) [1, 6]: 0 | search strategy times, random mode (R) [1, 6]: 5 | search strategy times, tendency mode (T) [1, 6]: 26 | search strategy times, linear mode (L) [1, 7]: 2 | search strategy times, marginal mode (M) [1, 7]: 7 | search strategy times, random mode (R) [1, 7]: 15 | search strategy times, tendency mode (T) [1, 7]: 12 | search strategy times, linear mode (L) [1, 8]: 4 | search strategy times, marginal mode (M) [1, 8]: 3 | search strategy times, random mode (R) [1, 8]: 9 | search strategy times, tendency mode (T) [1, 8]: 18 | search strategy times, linear mode (L) [1, 9]: 3 | search strategy times, marginal mode (M) [1, 9]: 1 | search strategy times, random mode (R) [1, 9]: 13 | search strategy times, tendency mode (T) [1, 9]: 17 | search strategy times, linear mode (L) [1, 10]: 9 | search strategy times, marginal mode (M) [1, 10]: 0 | search strategy times, random mode (R) [1, 10]: 7 | search strategy times, tendency mode (T) [1, 10]: 18 | search strategy times, linear mode (L) [1, 11]: 17* | search strategy times, marginal mode (M) [1, 11]: 0 | search strategy times, random mode (R) [1, 11]: 4 | search strategy times, tendency mode (T) [1, 11]: 13 | search strategy times, linear mode (L) [1, 12]: 4 | search strategy times, marginal mode (M) [1, 12]: 4 | search strategy times, random mode (R) [1, 12]: 16 | search strategy times, tendency mode (T) [1, 12]: 10 | search strategy times, linear mode (L) [1, 13]: 1 | search strategy times, marginal mode (M) [1, 13]: 2 | search strategy times, random mode (R) [1, 13]: 12 | search strategy times, tendency mode (T) [1, 13]: 19 | search strategy times, linear mode (L) [1, 14]: 6 | search strategy times, marginal mode (M) [1, 14]: 0 | search strategy times, random mode (R) [1, 14]: 7 | search strategy times, tendency mode (T) [1, 14]: 21 | search strategy times, linear mode (L) [1, 15]: 7 | search strategy times, marginal mode (M) [1, 15]: 1 | search strategy times, random mode (R) [1, 15]: 5 | search strategy times, tendency mode (T) [1, 15]: 20 | search strategy times, linear mode (L) [1, 16]: 9 | search strategy times, marginal mode (M) [1, 16]: 0 | search strategy times, random mode (R) [1, 16]: 2 | search strategy times, tendency mode (T) [1, 16]: 23 | ChAT activity in cortex (ChAT; cortex, data not shown): had no effect | activity of ChAT in hippocampus (ChAT; dl-PHPB 13 mg/kg): did not show significant effects | activity of ChAT in hippocampus (ChAT; dl-PHPB 39 mg/kg): did not show significant effects | activity of ChAT in hippocampus (ChAT; dl-PHPB 129 mg/kg, P<0.05): significantly increased the activity of ChAT
